In PubChem BioAssay AID2060616 (Molecular Pharmacology Branch, DTP, NCI, 2025):
Blank lines part the entries; values can stand above or below the molecule they belong to.

Tested on: 377384-186-R-J1-PDC complex spheroid viability
Assay: Anticancer human tumor 377384-186-R-J1-PDC patient-derived pancreatic carcinoma cell line growth inhibition [CLK]
Conditions: for IC50: curve of first compound; for viability, T/C: stronger effect = lower value
Method in brief: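 Patient-derived tumor cells grown as complex spheroids with HUVEC endothelial cells and mesenchymal stem cells, treated with drug combinations. Concentrations descend in half-log steps from near clinical Cmax, or from 10 microM if Cmax unknown.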

[1] = second compound 0.0316 µM, first compound 0.0316 µM
[2] = second compound 0.0316 µM, first compound 0.1 µM
[3] = second compound 0.0316 µM, first compound 0.316 µM
[4] = second compound 0.0316 µM, first compound 1 µM
[5] = second compound 0.0316 µM, first compound 3.16 µM
[6] = second compound 0.0316 µM, first compound 10 µM
[7] = second compound 0.1 µM, first compound 0.0316 µM
[8] = second compound 0.1 µM, first compound 0.1 µM
[9] = second compound 0.1 µM, first compound 0.316 µM
[10] = second compound 0.1 µM, first compound 1 µM
[11] = second compound 0.1 µM, first compound 3.16 µM
[12] = second compound 0.1 µM, first compound 10 µM
[13] = second compound 0.316 µM, first compound 0.0316 µM
[14] = second compound 0.316 µM, first compound 0.1 µM
[15] = second compound 0.316 µM, first compound 0.316 µM
[16] = second compound 0.316 µM, first compound 1 µM
[17] = second compound 0.316 µM, first compound 3.16 µM
[18] = second compound 0.316 µM, first compound 10 µM
[19] = second compound 1 µM, first compound 0.0316 µM
[20] = second compound 1 µM, first compound 0.1 µM
[21] = second compound 1 µM, first compound 0.316 µM
[22] = second compound 1 µM, first compound 1 µM
[23] = second compound 1 µM, first compound 3.16 µM
[24] = second compound 1 µM, first compound 10 µM
[25] = second compound 3.16 µM, first compound 0.0316 µM
[26] = second compound 3.16 µM, first compound 0.1 µM
[27] = second compound 3.16 µM, first compound 0.316 µM
[28] = second compound 3.16 µM, first compound 1 µM
[29] = second compound 3.16 µM, first compound 3.16 µM
[30] = second compound 3.16 µM, first compound 10 µM
[31] = second compound 10 µM, first compound 0.0316 µM
[32] = second compound 10 µM, first compound 0.1 µM
[33] = second compound 10 µM, first compound 0.316 µM
[34] = second compound 10 µM, first compound 1 µM
[35] = second compound 10 µM, first compound 3.16 µM
[36] = second compound 10 µM, first compound 10 µM
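Note: spheroids exposed to agents for 7 days before reading.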
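Throughout, for viability, T/C: luminescence signal used as a stand-in for viable cells.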

IC50 (second compound 0.0316 µM): > 10000 nM | IC50 (second compound 0.1 µM): 2760 nM | IC50 (second compound 0.316 µM): < 31.6 nM | IC50 (second compound 1 µM): < 31.6 nM | IC50 (second compound 3.16 µM): < 31.6 nM | IC50 (second compound 10 µM): < 31.6 nM
SMILES: C=CC(=O)N1CCN(c2nc(=O)n(-c3c(C)ccnc3C(C)C)c3nc(-c4c(O)cccc4F)c(F)cc23)C(C)C1 (stereo unspecified) + CNC(=O)c1ccc(Nc2nc(OC3CCCC3)c3c(-c4ccc5nc(C)oc5c4)c[nH]c3n2)c(OC)c1
viability, T/C [1]: 108% | viability, T/C [2]: 111% | viability, T/C [3]: 99.1% | viability, T/C [4]: 111% | viability, T/C [5]: 116% | viability, T/C [6]: 91.7% | viability, T/C [7]: 62.5% | viability, T/C [8]: 64.7% | viability, T/C [9]: 56.4% | viability, T/C [10]: 68.6% | viability, T/C [11]: 48.3% | viability, T/C [12]: 36% | viability, T/C [13]: 22.9% | viability, T/C [14]: 18.9% | viability, T/C [15]: 20.5% | viability, T/C [16]: 25% | viability, T/C [17]: 24% | viability, T/C [18]: 21.4% | viability, T/C [19]: 20.2% | viability, T/C [20]: 20.1% | viability, T/C [21]: 18.3% | viability, T/C [22]: 21.3% | viability, T/C [23]: 23.1% | viability, T/C [24]: 21.5% | viability, T/C [25]: 23.6% | viability, T/C [26]: 23.5% | viability, T/C [27]: 22% | viability, T/C [28]: 24.5% | viability, T/C [29]: 26.1% | viability, T/C [30]: 23.1% | viability, T/C [31]: 18.7% | viability, T/C [32]: 18.3% | viability, T/C [33]: 18.4% | viability, T/C [34]: 20.3% | viability, T/C [35]: 23.8% | viability, T/C [36]: 19.7%

SMILES: COC1C=CCC(C)C(C)S(=O)(=O)NC(=O)c2ccc3c(c2)N(CC2CCC21)CC1(CCCc2cc(Cl)ccc21)CO3 (stereo unspecified) + CN1CCN(c2cc(C(=O)Nc3cc4cc(-c5cnn(C)c5)ccc4cn3)ccn2)CC1
IC50 (second compound 0.0316 µM): 5480 nM | IC50 (second compound 0.1 µM): 4950 nM | IC50 (second compound 0.316 µM): < 31.6 nM | IC50 (second compound 1 µM): < 31.6 nM | IC50 (second compound 3.16 µM): < 31.6 nM | IC50 (second compound 10 µM): < 31.6 nM | viability, T/C [1]: 114% | viability, T/C [2]: 95.2% | viability, T/C [3]: 96.5% | viability, T/C [4]: 102% | viability, T/C [5]: 84.9% | viability, T/C [6]: 11.8% | viability, T/C [7]: 115% | viability, T/C [8]: 69.2% | viability, T/C [9]: 98% | viability, T/C [10]: 84.5% | viability, T/C [11]: 76.8% | viability, T/C [12]: 10.2% | viability, T/C [13]: 32.5% | viability, T/C [14]: 20.9% | viability, T/C [15]: 24.3% | viability, T/C [16]: 20% | viability, T/C [17]: 20.5% | viability, T/C [18]: 3.02% | viability, T/C [19]: 0.47% | viability, T/C [20]: 1.66% | viability, T/C [21]: 1.4% | viability, T/C [22]: 1.15% | viability, T/C [23]: 0.84% | viability, T/C [24]: 0.75% | viability, T/C [25]: 0.58% | viability, T/C [26]: 0.33% | viability, T/C [27]: 0.31% | viability, T/C [28]: 0.37% | viability, T/C [29]: 0.49% | viability, T/C [30]: 0.39% | viability, T/C [31]: 0.42% | viability, T/C [32]: 0.68% | viability, T/C [33]: 0.44% | viability, T/C [34]: 0.59% | viability, T/C [35]: 0.53% | viability, T/C [36]: 0.17%

SMILES: CC(Nc1ccc2c(c1)OCCn1cc(N3C(=O)OCC3C(F)F)nc1-2)C(N)=O (stereo unspecified) + CN1CCN(c2cc(C(=O)Nc3cc4cc(-c5cnn(C)c5)ccc4cn3)ccn2)CC1
IC50 (second compound 0.0316 µM): 5170 nM | IC50 (second compound 0.1 µM): 1460 nM | IC50 (second compound 0.316 µM): < 31.6 nM | IC50 (second compound 1 µM): < 31.6 nM | IC50 (second compound 3.16 µM): < 31.6 nM | IC50 (second compound 10 µM): < 31.6 nM | viability, T/C [1]: 85.8% | viability, T/C [2]: 83.1% | viability, T/C [3]: 72.2% | viability, T/C [4]: 69.4% | viability, T/C [5]: 53.4% | viability, T/C [6]: 43.4% | viability, T/C [7]: 90% | viability, T/C [8]: 79.3% | viability, T/C [9]: 50.6% | viability, T/C [10]: 57.4% | viability, T/C [11]: 50.5% | viability, T/C [12]: 39.4% | viability, T/C [13]: 23.5% | viability, T/C [14]: 23.6% | viability, T/C [15]: 18.5% | viability, T/C [16]: 19.8% | viability, T/C [17]: 18.3% | viability, T/C [18]: 18.4% | viability, T/C [19]: 2.08% | viability, T/C [20]: 1.88% | viability, T/C [21]: 2.17% | viability, T/C [22]: 1.6% | viability, T/C [23]: 1.66% | viability, T/C [24]: 2.21% | viability, T/C [25]: 0.29% | viability, T/C [26]: 0.96% | viability, T/C [27]: 0.62% | viability, T/C [28]: 0.3% | viability, T/C [29]: 0.47% | viability, T/C [30]: 0.64% | viability, T/C [31]: 0.32% | viability, T/C [32]: 1.36% | viability, T/C [33]: 0.49% | viability, T/C [34]: 0.37% | viability, T/C [35]: 0.69% | viability, T/C [36]: 0.37%
